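A five-concentration, 48-hour dose response in 96-well plates underlies each endpoint, interpolated linearly between surrounding concentrations. At the TGI there is no net growth.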
Key:
Assay in all cases: inhibition of tumour cell growth, NCI panel, 48 h
SF-268 CNS = test system: SF-268 CNS
HCT-116 colon = test system: HCT-116 colon
DMS 114 small cell lung = test system: DMS 114 small cell lung
NCI-H522 lung = test system: NCI-H522 lung
NCI-H226 lung = test system: NCI-H226 lung
786-0 renal = test system: 786-0 renal
OVCAR-5 ovarian = test system: OVCAR-5 ovarian
HOP-62 NSCLC = test system: HOP-62 NSCLC
SNB-78 CNS = test system: SNB-78 CNS
OVCAR-8 ovarian = test system: OVCAR-8 ovarian
HOP-18 NSCLC = test system: HOP-18 NSCLC
ACHN renal = test system: ACHN renal
CCRF-CEM leukemia = test system: CCRF-CEM leukemia
MALME-3M melanoma = test system: MALME-3M melanoma
K-562 leukemia = test system: K-562 leukemia
KM20L2 colon = test system: KM20L2 colon
HOP-92 NSCLC = test system: HOP-92 NSCLC
SN12C renal = test system: SN12C renal
HL-60(TB) leukemia = test system: HL-60(TB) leukemia
SNB-19 CNS = test system: SNB-19 CNS
SNB-75 CNS = test system: SNB-75 CNS
A549 NSCLC = test system: A549 NSCLC
U251 CNS = test system: U251 CNS
UO-31 renal = test system: UO-31 renal
MOLT-4 leukemia = test system: MOLT-4 leukemia
UACC-62 melanoma = test system: UACC-62 melanoma
TK-10 renal = test system: TK-10 renal
UACC-257 melanoma = test system: UACC-257 melanoma
COLO 205 colon = test system: COLO 205 colon
CAKI-1 renal = test system: CAKI-1 renal
EKVX NSCLC = test system: EKVX NSCLC
SK-MEL-5 melanoma = test system: SK-MEL-5 melanoma
HT29 colon = test system: HT29 colon
DMS 273 small cell lung = test system: DMS 273 small cell lung
XF 498 CNS = test system: XF 498 CNS
A498 renal = test system: A498 renal
M14 melanoma = test system: M14 melanoma
SK-MEL-2 melanoma = test system: SK-MEL-2 melanoma
RPMI-8226 leukemia = test system: RPMI-8226 leukemia
LXFL 529 NSCLC = test system: LXFL 529 NSCLC
HCT-15 colon = test system: HCT-15 colon
SW-620 colon = test system: SW-620 colon
SK-OV-3 ovarian = test system: SK-OV-3 ovarian
RXF 393 renal = test system: RXF 393 renal
SK-MEL-28 melanoma = test system: SK-MEL-28 melanoma
KM12 colon = test system: KM12 colon
LOX IMVI melanoma = test system: LOX IMVI melanoma
OVCAR-3 ovarian = test system: OVCAR-3 ovarian
NCI-H460 lung = test system: NCI-H460 lung
OVCAR-4 ovarian = test system: OVCAR-4 ovarian
DLD-1 colon = test system: DLD-1 colon
SR leukemia = test system: SR leukemia

Measured: TGI

NC(CCC(=O)Nc1ccc(O)cc1)C(=O)O (configuration not stated)
> 100 µM: all assays above

Source: PubChem BioAssay (NCI)
